From PMC12891993, “Bio-orthogonal chemistry-based strategy to Turn-OFF CRISPR-Cas9 activity in solution and live cells” (NAR Molecular Medicine, 2026)
Residues, ends and D or L forms follow the SMILES beside them. *: point of attachment. X1 = O=C(COC1CC/C=C/CCC1)*

How the values were obtained:
Type in all cases: cell-based
[1] = tested on: VEGFA in HEK293T cells; experiment: Western blot analysis of CRISPR-Cas9 experiments targeting VEGFA; details: Cas9 mRNA + sgRNA4-(U4Tz1) or sgRNA4-(U4Tz2), suppressor 10 μM added after 48 h of transfection
Experimental: Total protein lysate was harvested in RIPA buffer, and proteins separated by 10% SDS-PAGE were transferred to a PVDF membrane by using High MW protocol on Biorad Turbo wet transfer. Following transfer, membranes were blocked in 5% milk in PBST for 1 h at room temperature, washed three times in PBS with 0.1% (w/v) Tween 20 (PBS/T) for 10 min each and placed in primary antibody overnight at 4 °C. Primary antibody was rabbit VEGFA polyclonal antibody (1:2000 dilution, Cat.# 19003–1-AP, Proteintech) and α-tubulin monoclonal antibody (1:20 000 dilution, Cat.# 666031–1-Ig, Proteintech) in 5% BSA in PBS/T. Following overnight incubation, membranes were washed three times in PBS/T for 10 min each. Then membranes were incubated in a 1:10 000 dilution of goat anti-rabbit secondary (Jackson), goat-anti-mouse secondary in 5% milk, and PBS/T. Membranes were washed a final 3 times in PBS/T for 10 min each prior to being imaged on the BioRad ChemiDoc by using Thermo Scientific SuperSignal West Pico PLUS Chemiluminescent Substrate (BioRad, Cat.# 34 577).
To assess the new constructs, HEK239T cells were co-transfected with the unmodified sgRNA4, sgRNA4-(U4Tz1), or sgRNA4-(U4Tz2) and commercially available mRNA that encodes the Cas9 gene for 72 h. […] VEGFA expression was once again analyzed by Western blot.

[2] = tested on: HEK293 cells; experiment: Assessment of cell permeability of TCO-modified CRISPR suppressors with OG-Tz fluorescent probe; details: suppressor 30 μM 3 h, then OG-Tz 50 μM 2 h; for cellular fluorescence in the Oregon Green channel: confocal microscopy; for cell permeability: microscopy, confirmed by flow cytometry
Experimental: The studies were carried out using the previously reported OG-Tz fluorescent probe. The chemical structure of OG-Tz is shown in Supplementary Fig. S7. OG-Tz was synthesized using the procedure reported by Devaraj and co-workers. The HEK293 cells were cultured in DMEM, containing 10% FBS and 1X Penicillin/Streptomycin, at 37°C, 5% CO2, and 95% humidity. The cells were seeded at a concentration of 1 × 10^5 cells per well in a six-well plate 24 h prior to the experiment. The cells were treated with the TCO-modified CRISPR suppressors (30 μM) for 3 h. Then, the media was replaced, and the cells were treated with OG-Tz (50 μM) for 2h. Afterwards, the cells were treated with trypsin for 5 min, collected by centrifugation at 1000 RPM, and suspended in PBS (1 mL). GFP expression was analyzed by flow cytometry. Data from 10^6 cells were acquired using a FACS Aria III cell sorter equipped with a 488 nm/blue coherent sapphire solid-state laser, 20 mW (BD Biosciences, San Jose, CA, USA). Data analyses were carried out using FlowJo software (Ashland, OR, USA), according to the manufacturer’s instructions. Parameters, such as MFI and the percentages of specific populations, were quantified by histogram analysis.
HEK293 cells were grown to ∼70% confluence in 35 mm MatTek glass bottom dishes in DMEM supplemented with 10% […], penicillin, and streptomycin. The cells were treated with AAA-PNA-TCO, TTT-PNA-TCO, TCO-CPP-RRWQW, or TCO-CPP-RLRWR (30 μM) for 3 h. Afterwards, the cells were treated with OG-Tz (50 μM) for 2 h. Hoechst 33 258 dye was used for nuclear staining. Cellular fluorescence was analyzed using confocal microscopy. Microscopy experiments were carried out using a Zeiss LSM980 confocal microscope.

[3] = tested on: GFP gene in GFP-expressing HEK293 cells; experiment: CRISPR-Cas9 experiments in GFP-expressing HEK293 cells, flow cytometry; details: then suppressor 10 μM 24 h, 48 h growth, duplicate; for inactivation of sgRNA3-(U4Tz1) inside the cells (MFI of GFP): Cas9 mRNA + sgRNA3-(U4Tz1) 48 h; for inactivation of sgRNA3-(U4Tz2) inside the cells (MFI of GFP): Cas9 mRNA + sgRNA3-(U4Tz2) 48 h
Experimental: CRISPR-Cas9 experiments were carried out following the procedure reported by Yin et al. The GFP-expressing HEK293 cells were purchased from GenTarget (cat.# SC001) and cultured in DMEM, containing 10% FBS and 1X Penicillin/Streptomycin, at 37°C, 5% CO2, and 95% humidity. The cells were seeded at a concentration of 1 × 10^5 cells per well in a six-well plate 24 h prior to the experiment. The cells were transfected with Cas9 mRNA (500 ng, Thermo Fisher Scientific), GFP-targeting sgRNAs (30 nM) using lipofectamine (1.5 μL) (Invitrogen™ LMRNA003) for 72 h in Opti-MEM reduced serum media. After 72 h, Opti-MEM was replaced with fresh DMEM, and the cells were grown for an additional 48 h. The cells were treated with trypsin for 5 min, collected by centrifugation at 1000 RPM, and suspended in PBS (1 mL). GFP expression was analyzed by flow cytometry. Data from 10^6 cells were acquired using a FACS Aria III cell sorter equipped with a 488 nm/blue coherent sapphire solid-state laser, 20 mW (BD Biosciences, San Jose, CA, USA). Data analyses were carried out using FlowJo software (Ashland, OR, USA), according to the manufacturer’s instructions. Parameters, such as MFI and the percentages of specific populations, were quantified by histogram analysis.
Ability of TCO-modified CRISPR suppressors to control nuclease activity was examined as follows: GFP-expressing HEK239 cells were co-transfected with Cas9 mRNA (500 ng, Thermo Fisher Scientific), GFP-targeting sgRNAs (30 nM) using lipofectamine (1.5 μL) (Invitrogen™ LMRNA003) for 48 h. Then, AAA-PNA-TCO, TTT-PNA-TCO, TCO-CPP-RRWQW, and TCO-CPP-RLRWR (10 μM) were added to the media. After 24 h of treatment with the TCO-modified CRISPR suppressors, the media were replaced with fresh DMEM, and the cells were allowed to grow for an additional 48 h. The cells were treated with trypsin for 5 min, collected by centrifugation at 1000 RPM, and suspended in PBS (1 mL). GFP expression was analyzed by flow cytometry. Data from 10^6 cells were acquired using a FACS Aria III cell sorter equipped with a 488 nm/blue coherent sapphire solid-state laser, 20 mW (BD Biosciences, San Jose, CA, USA). Data analyses were carried out using FlowJo software (Ashland, OR, USA), according to the manufacturer’s instructions. Parameters, such as MFI and the percentages of specific populations, were quantified by histogram analysis.

SMILES | VEGFA expression after addition of suppressor [1] | cellular fluorescence in the Oregon Green channel [2] | cell permeability [2] | inactivation of sgRNA3-(U4Tz1) inside the cells (MFI of GFP) [3] | inactivation of sgRNA3-(U4Tz2) inside the cells (MFI of GFP) [3]
CC(C)C[C@H](NC(=O)[C@H](CCCNC(=N)N)NC(=O)COC1CC/C=C/CCC1)C(=O)N[C@@H](CCCNC(=N)N)C(=O)N[C@@H](Cc1c[nH]c2ccccc12)C(=O)N[C@@H](CCCNC(=N)N)C(=O)O (stereo partly shown) [TCO-CPP-RLRWR] (X1-RLRWR-OH) | higher VEGFA expression | strongest fluorescence | good cell permeability | Analogous results | Analogous results
N=C(N)NCCC[C@H](NC(=O)COC1CC/C=C/CCC1)C(=O)N[C@@H](CCCNC(=N)N)C(=O)N[C@@H](Cc1c[nH]c2ccccc12)C(=O)N[C@@H](CCC(N)=O)C(=O)N[C@@H](Cc1c[nH]c2ccccc12)C(=O)O (stereo partly shown) [TCO-CPP-RRWQW] (X1-RRWQW-OH) | higher VEGFA expression | strongest fluorescence | good cell permeability | able to inactivate | able to inactivate
